Tested on: IgG production
Assay: Cumulative IgG production in SAC + rIL-2 cultures, EIA
Assay type: cell-based, human
Details: for accumulation of IgG: 5 and 10 day SAC rIL-2 cultures, preliminary studies; for effect on IgG production: FIG. 7B
Source text: In FIG. 7, peripheral blood mononuclear cells (PBMC) enriched for B lymphocytes (BC92; 35% CD19, 33% CD20, 35% CD3) were continuously cultured for 5 days in either medium alone, Staphylococcus aureus Cowan I (SAC) plus interleukin 2 (IL-2) (50 U/ml), or SAC plus IL-2 in the presence of various concentrations of FLP or 2-chlorodeoxyadenosine (2CDA). After 5 days of culture, the supernatants were harvested and serial dilutions of supernatant assayed for huIgM and huIgG by EIA. The presence of IgM rheumatoid factor (IgM-RF) was determined by EIA using the Vectastain Biotin-Streptavidin amplification system. Results are reported as O.D. 405 nm units. Nonspecific binding of neat supernatant to uncoated wells was <0.05% of that seen with the respective coated wells. The results shown are from 1 representative experiment of 4 separate experiments conducted with 4 different sources of packed leukocytes.
In FIG. 8, peripheral blood mononuclear cells (PBMC) enriched for B lymphocytes (BC92, 35% CD19, 33% CD20, 35% CD3) were continuously cultured for 10 days in either medium alone, Staphylococcus aureus Cowan I (SAC) plus interleukin 2 (IL-2) (50 U/ml), or SAC plus IL-2 in the presence of various concentrations of FLP or 2CDA. At the end of the culture period, the supernatants were harvested and serial dilutions assayed for huIgM, huIgG, and IgM-RF by EIA. The cells were phenotyped by flowcytometry. Results are reported as O.D. 405 nm units. Nonspecific binding of neat supernatants to uncoated wells was <0.5% of that seen with parallel coated wells. The results shown are from 1 experiment representative of 3 separate experiments conducted with 3 different sources of packed leukocytes.
In FIG. 9, peripheral blood mononuclear cells (PBMC) (BC93; 22% CD19, 20% CD20, 78% CD3) were continuously cultured for 5 days in either medium alone, Staphylococcus aureus Cowan I (SAC) plus interleukin 2 (IL-2) (50 U/ml) or 20% T cell conditioned medium (Tcm) in the presence of various concentrations of FLP. At the end of the 5 day culture period, the supernatants were harvested and serial dilutions assayed for huIgM, huIgG, and IgM-RF by EIA. The results are reported as O.D. 405 nm units. Nonspecific binding of neat supernatants to uncoated wells was <0.05% of parallel coated wells. The results shown are from one representative experiment.
Immulon-2 (Dynatek Laboratories, #011-010-3450, Chantilly, Va.) flat-bottom 96 well microtiter plates were coated with 100 μl/well of a 2 μg/ml solution of goat F(ab′)2 anti-HuIgM (μ chain, CALTAG #H15100, So. San Francisco, Calif.) or goat F(ab′)2 anti-HuIgG (Fc sp., CALTAG #H10100) in 0.1 M sodium carbonate buffer, pH 9.6 overnight at 4° C. Uncoated wells were incubated with the carbonate buffer alone. The plates were rinsed and then incubated with 100 μl/well of 0.1% BSA/PBS for 1 hr at RT. The plates were rinsed twice with PBS and then incubated for 2 hrs at RT with the respective serial dilutions of culture supernatant and human IgM or IgG standards (Sigma, St.
Louis, Mo.). All dilutions were made in complete S-10 medium (see above). At the end of the incubation period, the plates were rinsed 3 times with PBS/0.05% Tween-20. 100 μl of a 1/500 dilution of goat F(ab′)2 anti-IgM (m) or anti-IgG (H+L) conjugated with alkaline phosphatase (Fisher Biotech, #OB1210-ALPH and #OB1220-ALPH, Pittsburg, Pa.) was added to each well and incubated for 1 hr at RT. The plates were rinsed 3-5 times with PBS/0.05% Tween-20 and 100 μl/well of p-nitrophenyl phosphate substrate (Bio-Rad, Richmond, Calif.) was added and incubated for 30 min. The wells were read at 405 nm with an InterMed NJ-2000 immunoreader. The concentration of sample IgM or IgG was calculated off of a standard curve using the XFROMY linear regression analysis on RS-1 (VAX-VMS). Nonspecific binding was determined from low-dilution samples incubated in parallel in uncoated wells (<0.005% O.D. 405 nm of coated wells). […]

Row | Structure (SMILES) | accumulation of IgG | effect on IgG production (one microgram per ml, 5 days) | effect on IgG accumulation (one microgram per ml, 10 days) | effect on IgG accumulation (0.1 μg/ml, 10 days, FIG. 8B) | reduction of IgG accumulation (1 μg, 10 days, FIG. 8B) | reduction of IgG accumulation (5 μg, 10 days, FIG. 8B) | reduction of IgG accumulation (0.1 and 0.5 μg/ml, PBMC, 5 days, cultures supplemented with T cell conditioned medium, FIG. 9B) | effect on IgG production (one hundred nanograms per ml, 5 days)
1 | Nc1nc(Cl)nc2c1ncn2[C@H]1C[C@H](O)[C@@H](CO)O1 [2CDA, 2-chlorodeoxyadenosine] | dose-related decrease | block | block the accumulation | – | – | – | – | –
2 | Nc1nc(F)nc2c1ncn2[C@@H]1O[C@H](COP(=O)(O)O)[C@@H](O)[C@@H]1O [FLP, fludarabine-5′-monophosphate] | dose-related decrease | – | – | minimal effect | 80% | 98% | not seen | minimal effect

From patent publication US6337333B1, “Method of treating autoimmune disease with fludarabine-5′-monophosphate” (priority 1992, dated 2002)
